Experimental data: the NIST ThermoML archive (doi:10.1016/j.tca.2011.01.001)
Numbers after ± are expanded uncertainties.

What was measured:
[1] = Molar enthalpy of transition or fusion; conditions: Crystal; DSC

O=C(O)c1ccc(O)c(O)c1 [3,4-dihydroxybenzoic acid]
vapor or sublimation pressure (381.8 K, Crystal, Torsion effusion method): 6e-05 ± 3e-06 kPa
vapor or sublimation pressure (383 K, Crystal, Torsion effusion method): 6.7e-05 ± 3e-06 kPa
vapor or sublimation pressure (384.5 K, Crystal, Torsion effusion method): 7.7e-05 ± 4e-06 kPa
vapor or sublimation pressure (385.6 K, Crystal, Torsion effusion method): 8.7e-05 ± 4e-06 kPa
vapor or sublimation pressure (387.2 K, Crystal, Torsion effusion method): 0.000104 ± 5e-06 kPa
vapor or sublimation pressure (388.6 K, Crystal, Torsion effusion method): 0.000117 ± 6e-06 kPa
vapor or sublimation pressure (390 K, Crystal, Torsion effusion method): 0.000143 ± 7e-06 kPa
vapor or sublimation pressure (391.4 K, Crystal, Torsion effusion method): 0.00016 ± 8e-06 kPa
vapor or sublimation pressure (392.8 K, Crystal, Torsion effusion method): 0.000191 ± 1e-05 kPa
vapor or sublimation pressure (394.2 K, Crystal, Torsion effusion method): 0.000216 ± 1.1e-05 kPa
vapor or sublimation pressure (395.4 K, Crystal, Torsion effusion method): 0.000251 ± 1.3e-05 kPa
vapor or sublimation pressure (396.9 K, Crystal, Torsion effusion method): 0.000286 ± 1.4e-05 kPa
vapor or sublimation pressure (398.3 K, Crystal, Torsion effusion method): 0.00033 ± 1.7e-05 kPa
vapor or sublimation pressure (399.8 K, Crystal, Torsion effusion method): 0.000377 ± 1.9e-05 kPa
vapor or sublimation pressure (401.2 K, Crystal, Torsion effusion method): 0.000465 ± 2.3e-05 kPa
vapor or sublimation pressure (402.6 K, Crystal, Torsion effusion method): 0.000533 ± 2.7e-05 kPa
vapor or sublimation pressure (404 K, Crystal, Torsion effusion method): 0.00061 ± 3.1e-05 kPa
vapor or sublimation pressure (405.4 K, Crystal, Torsion effusion method): 0.000701 ± 3.5e-05 kPa
vapor or sublimation pressure (406.8 K, Crystal, Torsion effusion method): 0.000804 ± 4e-05 kPa
vapor or sublimation pressure (407.7 K, Crystal, Torsion effusion method): 0.000876 ± 4.4e-05 kPa
vapor or sublimation pressure (408.9 K, Crystal, Torsion effusion method): 0.000997 ± 5e-05 kPa
vapor or sublimation pressure (485.2 K, Liquid, Non-isothermal TG): 0.819 ± 0.17 kPa
vapor or sublimation pressure (485.8 K, Liquid, Non-isothermal TG): 0.807 ± 0.18 kPa
vapor or sublimation pressure (486.2 K, Liquid, Non-isothermal TG): 0.892 ± 0.18 kPa
vapor or sublimation pressure (486.8 K, Liquid, Non-isothermal TG): 0.868 ± 0.18 kPa
vapor or sublimation pressure (487.2 K, Liquid, Non-isothermal TG): 0.933 ± 0.2 kPa
vapor or sublimation pressure (487.7 K, Liquid, Non-isothermal TG): 0.902 ± 0.18 kPa
vapor or sublimation pressure (488.1 K, Liquid, Non-isothermal TG): 0.974 ± 0.2 kPa
vapor or sublimation pressure (488.4 K, Liquid, Isothermal TG): 0.983 ± 0.21 kPa
vapor or sublimation pressure (488.7 K, Liquid, Non-isothermal TG): 0.967 ± 0.2 kPa
vapor or sublimation pressure (488.8 K, Liquid, Isothermal TG): 1.007 ± 0.21 kPa
vapor or sublimation pressure (489.1 K, Liquid, Non-isothermal TG): 1.005 ± 0.21 kPa
vapor or sublimation pressure (489.2 K, Liquid, Isothermal TG): 1.027 ± 0.21 kPa
vapor or sublimation pressure (489.6 K, Liquid, Isothermal TG): 1.061 ± 0.22 kPa
vapor or sublimation pressure (489.7 K, Liquid, Non-isothermal TG): 1.033 ± 0.22 kPa
vapor or sublimation pressure (490 K, Liquid, Isothermal TG): 1.074 ± 0.22 kPa
vapor or sublimation pressure (490.1 K, Liquid, Non-isothermal TG): 1.129 ± 0.23 kPa
vapor or sublimation pressure (490.4 K, Liquid, Isothermal TG): 1.092 ± 0.23 kPa
vapor or sublimation pressure (490.7 K, Liquid, Non-isothermal TG): 1.087 ± 0.23 kPa
vapor or sublimation pressure (490.8 K, Liquid, Isothermal TG): 1.129 ± 0.23 kPa
vapor or sublimation pressure (491.1 K, Liquid, Non-isothermal TG): 1.188 ± 0.25 kPa
vapor or sublimation pressure (491.2 K, Liquid, Isothermal TG): 1.153 ± 0.24 kPa
vapor or sublimation pressure (491.6 K, Liquid, Isothermal TG): 1.192 ± 0.25 kPa
vapor or sublimation pressure (491.7 K, Liquid, Non-isothermal TG): 1.162 ± 0.24 kPa
vapor or sublimation pressure (492 K, Liquid, Isothermal TG): 1.22 ± 0.26 kPa
vapor or sublimation pressure (492.2 K, Liquid, Non-isothermal TG): 1.221 ± 0.25 kPa
vapor or sublimation pressure (492.4 K, Liquid, Isothermal TG): 1.254 ± 0.26 kPa
vapor or sublimation pressure (492.7 K, Liquid, Non-isothermal TG): 1.286 ± 0.27 kPa
vapor or sublimation pressure (492.8 K, Liquid, Isothermal TG): 1.28 ± 0.27 kPa
vapor or sublimation pressure (493.1 K, Liquid, Non-isothermal TG): 1.327 ± 0.27 kPa
vapor or sublimation pressure (493.2 K, Liquid, Isothermal TG): 1.32 ± 0.27 kPa
vapor or sublimation pressure (493.6 K, Liquid, Isothermal TG): 1.346 ± 0.28 kPa
vapor or sublimation pressure (493.7 K, Liquid, Non-isothermal TG): 1.298 ± 0.28 kPa
vapor or sublimation pressure (494 K, Liquid, Isothermal TG): 1.374 ± 0.29 kPa
vapor or sublimation pressure (494.1 K, Liquid, Non-isothermal TG): 1.375 ± 0.28 kPa
vapor or sublimation pressure (494.4 K, Liquid, Isothermal TG): 1.381 ± 0.28 kPa
vapor or sublimation pressure (494.7 K, Liquid, Non-isothermal TG): 1.365 ± 0.28 kPa
vapor or sublimation pressure (494.8 K, Liquid, Isothermal TG): 1.445 ± 0.3 kPa
vapor or sublimation pressure (495 K, Liquid, Non-isothermal TG): 1.494 ± 0.3 kPa
vapor or sublimation pressure (495.2 K, Liquid, Isothermal TG): 1.477 ± 0.3 kPa
vapor or sublimation pressure (495.6 K, Liquid, Isothermal TG): 1.482 ± 0.31 kPa
vapor or sublimation pressure (495.7 K, Liquid, Non-isothermal TG): 1.435 ± 0.3 kPa
vapor or sublimation pressure (495.9 K, Liquid, Non-isothermal TG): 1.566 ± 0.33 kPa
vapor or sublimation pressure (496 K, Liquid, Isothermal TG): 1.529 ± 0.31 kPa
vapor or sublimation pressure (496.4 K, Liquid, Isothermal TG): 1.557 ± 0.32 kPa
vapor or sublimation pressure (496.7 K, Liquid, Non-isothermal TG): 1.477 ± 0.31 kPa
vapor or sublimation pressure (496.8 K, Liquid, Isothermal TG): 1.584 ± 0.33 kPa
vapor or sublimation pressure (496.9 K, Liquid, Non-isothermal TG): 1.652 ± 0.36 kPa
vapor or sublimation pressure (497.2 K, Liquid, Isothermal TG): 1.607 ± 0.33 kPa
vapor or sublimation pressure (497.6 K, Liquid, Isothermal TG): 1.636 ± 0.34 kPa
vapor or sublimation pressure (497.7 K, Liquid, Non-isothermal TG): 1.634 ± 0.33 kPa
vapor or sublimation pressure (498 K, Liquid, Isothermal TG): 1.682 ± 0.34 kPa
vapor or sublimation pressure (498 K, Liquid, Non-isothermal TG): 1.745 ± 0.35 kPa
vapor or sublimation pressure (498.4 K, Liquid, Isothermal TG): 1.699 ± 0.35 kPa
vapor or sublimation pressure (498.8 K, Liquid, Isothermal TG): 1.728 ± 0.35 kPa
vapor or sublimation pressure (498.8 K, Liquid, Non-isothermal TG): 1.703 ± 0.36 kPa
vapor or sublimation pressure (499 K, Liquid, Non-isothermal TG): 1.71 ± 0.35 kPa
vapor or sublimation pressure (499.1 K, Liquid, Isothermal TG): 1.751 ± 0.36 kPa
vapor or sublimation pressure (499.5 K, Liquid, Isothermal TG): 1.764 ± 0.36 kPa
vapor or sublimation pressure (499.7 K, Liquid, Non-isothermal TG): 1.817 ± 0.37 kPa
vapor or sublimation pressure (499.9 K, Liquid, Non-isothermal TG): 1.882 ± 0.39 kPa
vapor or sublimation pressure (500 K, Liquid, Isothermal TG): 1.815 ± 0.37 kPa
vapor or sublimation pressure (500.4 K, Liquid, Isothermal TG): 1.865 ± 0.38 kPa
vapor or sublimation pressure (500.7 K, Liquid, Isothermal TG): 1.879 ± 0.38 kPa
vapor or sublimation pressure (500.7 K, Liquid, Non-isothermal TG): 1.858 ± 0.38 kPa
vapor or sublimation pressure (501 K, Liquid, Non-isothermal TG): 1.898 ± 0.38 kPa
vapor or sublimation pressure (501.2 K, Liquid, Isothermal TG): 1.914 ± 0.39 kPa
vapor or sublimation pressure (501.6 K, Liquid, Isothermal TG): 1.939 ± 0.4 kPa
vapor or sublimation pressure (501.7 K, Liquid, Non-isothermal TG): 1.899 ± 0.38 kPa
vapor or sublimation pressure (502 K, Liquid, Isothermal TG): 1.945 ± 0.39 kPa
vapor or sublimation pressure (502 K, Liquid, Non-isothermal TG): 1.962 ± 0.4 kPa
vapor or sublimation pressure (502.4 K, Liquid, Isothermal TG): 2.003 ± 0.41 kPa
vapor or sublimation pressure (502.7 K, Liquid, Non-isothermal TG): 1.95 ± 0.39 kPa
vapor or sublimation pressure (502.8 K, Liquid, Isothermal TG): 2.047 ± 0.42 kPa
vapor or sublimation pressure (503.1 K, Liquid, Non-isothermal TG): 2.033 ± 0.41 kPa
vapor or sublimation pressure (503.8 K, Liquid, Non-isothermal TG): 2.014 ± 0.43 kPa
vapor or sublimation pressure (504.1 K, Liquid, Non-isothermal TG): 2.184 ± 0.45 kPa
vapor or sublimation pressure (504.7 K, Liquid, Non-isothermal TG): 2.179 ± 0.45 kPa
vapor or sublimation pressure (505 K, Liquid, Non-isothermal TG): 2.292 ± 0.51 kPa
vapor or sublimation pressure (505.7 K, Liquid, Non-isothermal TG): 2.217 ± 0.44 kPa
Normal melting temperature (Crystal, DTA): 201.8 ± 0.5 °C
Molar enthalpy of transition or fusion [1]: 8.13 ± 0.478 kcal/mol
